This is an account of results in the METLIN SMRT retention time set (Domingo-Almenara et al. 2019).

The nature of this data set: gradient 5% acetonitrile 3 min, to 50% in 2 min, to 85% in 15 min, held 3 min, 100 µL/min. Conditions: column: Zorbax Extend-C18 2.1 x 50 mm; eluents: water / acetonitrile, 0.1% formic acid. In a few lines: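 Values are retention times taken from adduct peaks that software picked and an analyst inspected. The pure standards were run as mixtures of ~100 molecules on HPLC linked to a quadrupole time-of-flight mass spectrometer, in positive and negative ionization mode. A Zorbax Extend-C18 column (2.1 × 50 mm, 1.8 μm) was used at 100 μL/min with water and acetonitrile, each including 0.1% formic acid.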
With `CSc1ccccc1-c1nnc(NC(=O)c2cc(Cl)sc2Cl)o1`, the RP-LC retention time came out at 937 s.
To `c1cc2c(cc1-c1noc(-c3ccc4c(c3)OCO4)n1)ncn2CCN1CCCC1` belongs 634 s; to `O=C(CCCn1nnc2cc(S(=O)(=O)N3CCCC3)ccc21)N1CCCc2ccccc21`, 873 s; to `Cc1cc(F)ccc1NS(=O)(=O)c1cc(-c2nc(C(C)(C)C)cs2)cs1`, 1260 s.
Under `CCCN(CCC)c1nc(-c2ccccc2F)nc2ccccc12` stands 814 s.
`CCn1cc(-c2nc(C)c(C(=O)Nc3ccc4c(c3)OCCO4)s2)c2cccnc21` returned an RP-LC retention time of 925 s.
Under `CCn1c(=O)c2cc(C(=O)NCc3cn[nH]c3C)nn2c2ccccc21` stands 781 s.
To `CCCCCn1c(=O)c2c(nc3n2CCCCN3c2ccc(OCC)cc2)n(C)c1=O` belongs 1190 s; to `COc1ccc(Cl)cc1N1CC(c2nc(-c3cccs3)no2)CC1=O` (stereo not given), 930 s; to `COc1ccc(CC(C)(O)CNC(=O)c2cccc(C(F)(F)F)c2)cc1` (stereo not given), 823 s.
To `Cc1nc(NC(=O)c2cc(C3CC3)n(C3CCS(=O)(=O)C3)n2)sc1C` (stereo not given) belongs 764 s; to `CC(C)Oc1ccc(CNC(=O)c2sc3ncccc3c2-n2cccc2)cc1`, 1110 s.
The compound `CC(C)N1C(=O)c2cccnc2Sc2cc(NC(=O)c3ccc(F)c(F)c3)ccc21` showed an RP-LC retention time of 925 s.
To `O=c1ccc(-c2nc(-c3ccncc3)no2)nn1Cc1ccc(F)cc1Cl` belongs 904 s.
Regarding `COc1ccc(N2C(=O)CN(Cc3ccccc3C)[C@H]3CS(=O)(=O)C[C@H]32)cc1`, the RP-LC retention time was 812 s.
To `Cc1ccc2c(C(=O)NCc3ccc(C)o3)cc(NC(=O)C3CCC3)cc2n1` belongs 618 s.
`COc1ccc(-n2c(=O)n(C)c(=O)c3cc(C(=O)Nc4ccc(F)c(F)c4)cnc32)cc1` gave an RP-LC retention time of 948 s.
Under `Cc1cccc(NC(=O)N2CCc3nc(-c4ccc(Cl)cc4)ncc3C2)c1` stands 1080 s; under `O=C(CCCc1ccccc1)Nc1cccn2c(C3CCC3)nnc12`, 901 s.
To `CN1CCN(CCNc2ccc(CO)c3sc4ccccc4c(=O)c23)CC1` belongs 616 s.
To `Cc1ccc(S(=O)(=O)N2CCCC(Cn3c(C4CC4)nc4cccnc43)C2)c(C)c1` (stereo not given) belongs 832 s; to `CCc1noc(-c2cc(=O)n(CC(=O)NCc3ccccc3F)c3ccccc23)n1`, 890 s.
Consider `CCOC(=O)C1CCN(Cc2nc3nc(C)cc(N4CCOCC4)n3n2)CC1`, for which the RP-LC retention time is 576 s.
In turn, `COc1ccc(N2CCN(C(=O)Cn3ccc4c(SCc5ccc(F)cc5)nccc43)CC2)cc1` displayed an RP-LC retention time of 759 s.
To `COC(=O)c1ccc(NC(=O)Cn2cccc(-c3nc(-c4ccc(F)cc4)no3)c2=O)cc1` belongs 877 s; to `Cc1ccn2cc(-c3ccc(NS(=O)(=O)c4ccccc4F)cc3)nc2n1`, 636 s; to `CCc1nnc(-c2ccc(S(=O)(=O)N3CCC(C)CC3)o2)o1`, 920 s.
To `Cc1nn(C(C)C(=O)NCCCN(C)C2CCCCC2)c(=O)c2nn(-c3ccccc3)c(C)c12` (stereo not given) belongs 656 s; to `CCOC(=O)c1cc(S(=O)(=O)N2CCCC2C(=O)NC2CCCC2)cn1C` (stereo not given), 732 s.
Consider `CCC(C)C(NC(=O)Cc1ccc(OC)c(Cl)c1)C(=O)Nc1nc2ccccc2[nH]1` (stereo not given), for which the RP-LC retention time is 762 s.
To `Cc1ccc(-c2cn3ccn(-c4ccc(Cl)cc4)c(=O)c3n2)cc1` belongs 905 s; to `COCC(=O)N1CCc2c(c(-c3nc(C4CC4)no3)nn2C)C1`, 653 s.
Under `O=C(NCc1ccccc1F)c1ccc(NC(=O)C2CC2)cc1N1CCOCC1` stands 995 s; under `COc1cccc(-c2nnc(Cc3nc(-c4ccccc4F)no3)o2)c1`, 1020 s; under `CCc1nc2ccc(-c3noc(-c4cccs4)n3)cc2n1CC`, 702 s.
Compound `O=C(C1CC1)N1CCC(c2noc(-c3ccccc3)n2)C1` (stereo not given) registered an RP-LC retention time of 956 s.
To `COc1ccc(F)cc1S(=O)(=O)N1CCn2c(nn(C)c2=O)C1` belongs 654 s; to `CN(C)C(=O)c1cccnc1OC1CCN(C(=O)c2cccc(Br)c2)C1` (stereo not given), 709 s; to `Cc1nnc(-c2cn(CC(=O)NCCC3=CCCCC3)c3ccccc23)o1`, 803 s.
Under `CSc1ccc(Nc2ncccc2S(=O)(=O)Nc2ccc(F)cc2)cc1` stands 1100 s; under `CN1C(=O)CSc2cnn(CC(=O)N3CCCc4ccccc43)c(=O)c21`, 726 s.
To `Cn1cccc1C(=O)Nc1cnn(-c2ncc(N3CCCC3)cn2)c1` belongs 789 s; to `Cc1ccc(NC(=O)C2CCN(S(=O)(=O)c3ccc4c(c3)sc(=O)n4C)CC2)cc1F`, 933 s.
`COc1cccc(CC(=O)N2CCC3(CC2)NCc2ccccc2-n2ccnc23)c1` registered an RP-LC retention time of 572 s.
To `CN(C)C(=O)Cn1c(C(F)(F)F)nc2cc3c(cc21)OCCO3` belongs 694 s.
Under `CC(C(=O)NCCN1CCCCC1)n1c2ccccc2c2cnn(C)c(=O)c21` (stereo not given) stands 628 s.
As to `CN1CCC2(CC1)CN(C(=O)CCc1nc3ccccc3s1)Cc1ccccc1O2`, the RP-LC retention time amounted to 671 s.
Compound `COc1ccc(CNC(=O)COc2ccc(NC(=O)C3CC3)cn2)cc1OC` had an RP-LC retention time of 666 s.
For the compound `Cc1ccc(Nc2nc(C(=O)NC3CCS(=O)(=O)C3)nc3ccccc23)cc1` (stereo not given), the RP-LC retention time is 685 s.
Compound `COc1ccc(NC(=O)c2ccc(-n3cnc(NC(=O)C4CC4)c3)cc2)cc1Cl` returned an RP-LC retention time of 780 s.
Under `COCC(C)NC(=O)C(=O)c1cn(CC(=O)N2CCOCC2)c2ccccc12` (stereo not given) stands 704 s.
To `Cc1ccc(-c2nnc(-c3nn(C)c4c3CN(S(=O)(=O)c3ccccc3Cl)CC4)o2)cc1` belongs 1020 s.
To `O=C(NCCC1=CCCCC1)c1cnc(-c2ccccc2)nc1-c1ccncc1` belongs 966 s.
For the compound `Cc1oc(-c2[nH]ncc2C(=O)N2CCCC2)cc1S(=O)(=O)Nc1ccc(F)cc1`, the RP-LC retention time came out at 705 s.
Under `O=c1n(Cc2cccc(Cl)c2)nc2ccc(S(=O)(=O)N3CCCCCC3)cn12` stands 1040 s; under `Cc1nc2cc(-c3noc(-c4cc(F)ccc4F)n3)ccc2o1`, 1070 s.
As for `CSc1ccccc1C(=O)N1CC2CC1C(=O)O2` (stereo not given), the RP-LC retention time is 628 s.
To `O=C(CCC1CCCN(S(=O)(=O)c2ccccc2F)C1)NCc1cc(F)ccc1F` (stereo not given) belongs 966 s; to `COc1ccc(CN2CCC(C3CCNC3)CC2)c(OC)c1` (stereo not given), 548 s.
Under `CCc1ccc(CNC(=O)C2CCN(c3cc(Oc4ccc(CC)cc4)ncn3)CC2)cc1` stands 1120 s; under `CCOC(=O)C1CCN(c2cc3c(cc2NC(=O)NC(C)CC)n(C)c(=O)n3C)CC1` (stereo not given), 778 s.
Under `CCOC(=O)C1CCN(S(=O)(=O)c2cc3n(c2)CCCNC3=O)CC1` stands 652 s.
On to `O=C(Nc1ccc(F)cc1F)N1CCc2nc[nH]c2C1`, for which the RP-LC retention time is 568 s.
Under `O=C(CCn1nnc2cc(-c3noc(COc4ccc(F)cc4)n3)ccc21)N1CCCCCC1` stands 990 s; under `O=C(CCc1nc2ccccc2n(CC(=O)NC2CCc3ccccc32)c1=O)NC1CCCCC1` (stereo not given), 879 s; under `Cc1c(Cl)cccc1Nc1ccccc1C(=O)O`, 1060 s.
To `CCOc1ccc([C@H]2N(c3cc(C)on3)C(=O)[C@@H]3CCCN32)cc1` belongs 743 s; to `O=C(Nc1ccc(OCc2nnc(-c3ccccc3)o2)cc1)c1cccnc1Cl`, 793 s; to `O=C(c1cc(Cl)ccc1F)N1CCC2(CC1)NC(=O)N(Cc1ccc(F)cc1)C2=O`, 852 s.
To `CCc1ccc2[nH]c3c(c(=O)c2c1)CN(CC(=O)NCc1ccc(OC)cc1)CC3` belongs 612 s; to `CCN1CCCn2cc(S(=O)(=O)Nc3ccccc3C)cc2C1=O`, 720 s; to `O=C(Cn1nc2n(c1=O)CCCCC2)N1CCN(c2ccc(F)cc2)CC1`, 701 s.
Take `COc1ccccc1C(=O)N1CCCC1c1cc(C(C)C)no1` (stereo not given): the RP-LC retention time amounted to 831 s.
To `CC(C)NC(=O)C1CCc2sc(C(=O)N3CCCC3)cc2C1` (stereo not given) belongs 696 s.
In turn, `COC(=O)c1ccc(NC(=O)c2csc(-c3cn(C)c4ncccc34)n2)cc1` gave an RP-LC retention time of 990 s.
As for `CCOCC(=O)N1CCCn2cc(-c3ccccc3)nc21`, the RP-LC retention time was 621 s.
`O=C(Cc1cccc(F)c1)NC1CCN(c2cc(-c3cccs3)[nH]n2)C1` (stereo not given) returned an RP-LC retention time of 710 s.
`Cc1nn(C(C)C(=O)NCCCN2CCCCCC2)c(=O)c2c1sc1ccccc12` (stereo not given) returned an RP-LC retention time of 702 s.
Under `Cc1cc(C)c(C(=O)N2CCC(CC(=O)NCCCN3CCCCCC3)CC2)[nH]1` stands 594 s; under `CCCCc1ccc(NC(=O)CSc2ccc(N3CCCC(C(=O)NC4CC4)C3)nn2)cc1` (stereo not given), 800 s.
